Source: ChEMBL document CHEMBL1255442, “Assay of colistin and colistin methanesulfonate in plasma and urine by liquid chromatography-tandem mass spectrometry” (Antimicrob Agents Chemother, 2010)

Assays:
Format in all cases: ADME, organism-based
Plasma [1] = experiment: Stability of the compound in healthy human spiked plasma assessed as Colistin methanesulfonate A degradation at 80 mg, iv administered for 60 mins measured after 5 hrs at 4 degC by LC-MS/MS assay; settings: in vivo
Plasma [2] = experiment: Stability of the compound in healthy human spiked plasma assessed as Colistin methanesulfonate A at 80 mg, iv administered for 60 mins measured after 4 hrs in room temperature by LC-MS/MS assay; settings: in vivo
[3] = Stability of the compound in healthy human spiked urine assessed as Colistin methanesulfonate B degradation at 80 mg, iv administered for 60 mins measured after 2 freeze-thaw cycles by LC-MS/MS assay; settings: in vivo, 1 h
Plasma [4] = experiment: Stability of the compound in healthy human spiked plasma assessed as Colistin methanesulfonate B at 80 mg, iv administered for 60 mins measured under nonacidic pretreatment by LC-MS/MS assay; settings: in vivo, 1 h
[5] = Stability of the compound in healthy human spiked urine assessed as Colistin methanesulfonate B at 80 mg, iv administered for 60 mins measured at room temperature by LC-MS/MS assay; settings: in vivo, 1 h
Plasma [6] = experiment: Stability of the compound in healthy human spiked plasma assessed as Colistin methanesulfonate A degradation at 80 mg, iv administered for 60 mins measured after 4 hrs in room temperature by LC-MS/MS assay; settings: in vivo
Plasma [7] = experiment: Stability of the compound in healthy human spiked plasma assessed as Colistin methanesulfonate B degradation at 80 mg, iv administered for 60 mins measured under nonacidic pretreatment by LC-MS/MS assay; settings: in vivo, 1 h
[8] = Stability of the compound in healthy human spiked urine assessed as Colistin methanesulfonate A at 80 mg, iv administered for 60 mins measured at room temperature by LC-MS/MS assay; settings: in vivo, 1 h
Plasma [9] = experiment: Stability of the compound in healthy human spiked plasma assessed as Colistin methanesulfonate A degradation at 80 mg, iv administered for 60 mins measured under nonacidic pretreatment by LC-MS/MS assay; settings: in vivo, 1 h
Plasma [10] = experiment: Stability of the compound in healthy human spiked plasma assessed as Colistin methanesulfonate B degradation at 80 mg, iv administered for 60 mins measured after 2 freeze-thaw cycles by LC-MS/MS assay; settings: in vivo, 1 h
Plasma [11] = experiment: Stability of the compound in healthy human spiked plasma assessed as initial Colistin methanesulfonate B at 80 mg, iv administered for 60 mins measured under acidic pretreatment by LC-MS/MS assay; settings: in vivo, 1 h
Plasma [12] = experiment: Stability of the compound in healthy human spiked plasma assessed as Colistin methanesulfonate A degradation at 80 mg, iv administered for 60 mins measured post 2 months of incubation at -20 degC by LC-MS/MS assay; settings: in vivo, 1 h
[13] = Stability of the compound in healthy human spiked urine assessed as Colistin methanesulfonate B degradation at 80 mg, iv administered for 60 mins measured after 4 hrs in room temperature by LC-MS/MS assay; settings: in vivo
Plasma [14] = experiment: Stability of the compound in healthy human spiked plasma assessed as Colistin methanesulfonate A degradation at 80 mg, iv administered for 60 mins measured under acidic pretreatment by LC-MS/MS assay; settings: in vivo, 1 h
Plasma [15] = experiment: Stability of the compound in healthy human spiked plasma assessed as Colistin methanesulfonate B at 80 mg, iv administered for 60 mins measured after 1 hr in room temperature by LC-MS/MS assay; settings: in vivo
[16] = Stability of the compound in healthy human spiked urine assessed as Colistin methanesulfonate A at 80 mg, iv administered for 60 mins measured after 1 hr in room temperature by LC-MS/MS assay; settings: in vivo
[17] = Stability of the compound in healthy human spiked urine assessed as Colistin methanesulfonate B at 80 mg, iv administered for 60 mins measured after 2 freeze-thaw cycles by LC-MS/MS assay; settings: in vivo, 1 h
Plasma [18] = experiment: Stability of the compound in healthy human spiked plasma assessed as initial Colistin methanesulfonate B at 80 mg, iv administered for 60 mins measured post 2 months of incubation at -20 degC by LC-MS/MS assay; settings: in vivo, 1 h, pooled result: one value given for 9 cell lines, strains, targets or settings
Plasma [19] = experiment: Stability of the compound in healthy human spiked plasma assessed as initial Colistin methanesulfonate A at 80 mg, iv administered for 60 mins measured under acidic pretreatment by LC-MS/MS assay; settings: in vivo, 1 h
Plasma [20] = experiment: Stability of the compound in healthy human spiked plasma assessed as Colistin methanesulfonate A at 80 mg, iv administered for 60 mins measured under acidic pretreatment by LC-MS/MS assay; settings: in vivo, 1 h
Plasma [21] = experiment: Stability of the compound in healthy human spiked plasma assessed as Colistin methanesulfonate A degradation at 80 mg, iv administered for 60 mins measured after 2 freeze-thaw cycles by LC-MS/MS assay; settings: in vivo, 1 h
[22] = Stability of the compound in healthy human spiked urine assessed as Colistin methanesulfonate A degradation at 80 mg, iv administered for 60 mins measured after 4 hrs in room temperature by LC-MS/MS assay; settings: in vivo
Plasma [23] = experiment: Stability of the compound in healthy human spiked plasma assessed as initial Colistin methanesulfonate A at 80 mg, iv administered for 60 mins measured post 2 months of incubation at -20 degC by LC-MS/MS assay; settings: in vivo, 1 h, pooled result: one value given for 9 cell lines, strains, targets or settings
Plasma [24] = experiment: Stability of the compound in healthy human spiked plasma assessed as Colistin methanesulfonate B at 80 mg, iv administered for 60 mins measured after 4 hrs in room temperature by LC-MS/MS assay; settings: in vivo
[25] = Stability of the compound in healthy human spiked urine assessed as Colistin methanesulfonate B degradation at 80 mg, iv administered for 60 mins measured after 1 hr in room temperature by LC-MS/MS assay; settings: in vivo
Plasma [26] = experiment: Stability of the compound in healthy human spiked plasma assessed as Colistin methanesulfonate A degradation at 80 mg, iv administered for 60 mins measured after 1 hr in room temperature by LC-MS/MS assay; settings: in vivo
Plasma [27] = experiment: Stability of the compound in healthy human spiked plasma assessed as Colistin methanesulfonate A at 80 mg, iv administered for 60 mins measured under nonacidic pretreatment by LC-MS/MS assay; settings: in vivo, 1 h
Plasma [28] = experiment: Stability of the compound in healthy human spiked plasma assessed as Colistin methanesulfonate B at 80 mg, iv administered for 60 mins measured after 5 hrs at 4 degC by LC-MS/MS assay; settings: in vivo
[29] = Stability of the compound in healthy human spiked urine assessed as Colistin methanesulfonate B degradation at 80 mg, iv administered for 60 mins measured at room temperature by LC-MS/MS assay; settings: in vivo, 1 h
[30] = Stability of the compound in healthy human spiked urine assessed as Colistin methanesulfonate B at 80 mg, iv administered for 60 mins measured after 1 hr in room temperature by LC-MS/MS assay; settings: in vivo
Plasma [31] = experiment: Stability of the compound in healthy human spiked plasma assessed as Colistin methanesulfonate B degradation at 80 mg, iv administered for 60 mins measured post 2 months of incubation at -20 degC by LC-MS/MS assay; settings: in vivo, 1 h
Plasma [32] = experiment: Stability of the compound in healthy human spiked plasma assessed as Colistin methanesulfonate B degradation at 80 mg, iv administered for 60 mins measured after 1 hr in room temperature by LC-MS/MS assay; settings: in vivo
Plasma [33] = experiment: Stability of the compound in healthy human spiked plasma assessed as Colistin methanesulfonate B at 80 mg, iv administered for 60 mins measured after 2 freeze-thaw cycles by LC-MS/MS assay; settings: in vivo, 1 h
[34] = Stability of the compound in healthy human spiked urine assessed as Colistin methanesulfonate A degradation at 80 mg, iv administered for 60 mins measured at room temperature by LC-MS/MS assay; settings: in vivo, 1 h
Plasma [35] = experiment: Stability of the compound in healthy human spiked plasma assessed as Colistin methanesulfonate A at 80 mg, iv administered for 60 mins measured after 2 freeze-thaw cycles by LC-MS/MS assay; settings: in vivo, 1 h
[36] = Stability of the compound in healthy human spiked urine assessed as Colistin methanesulfonate B at 80 mg, iv administered for 60 mins measured after 4 hrs in room temperature by LC-MS/MS assay; settings: in vivo
[37] = Stability of the compound in healthy human spiked urine assessed as Colistin methanesulfonate A at 80 mg, iv administered for 60 mins measured after 2 freeze-thaw cycles by LC-MS/MS assay; settings: in vivo, 1 h
Plasma [38] = experiment: Stability of the compound in healthy human spiked plasma assessed as Colistin methanesulfonate A at 80 mg, iv administered for 60 mins measured after 1 hr in room temperature by LC-MS/MS assay; settings: in vivo
Plasma [39] = experiment: Stability of the compound in healthy human spiked plasma assessed as initial Colistin methanesulfonate A at 80 mg, iv administered for 60 mins measured after 2 freeze-thaw cycles by LC-MS/MS assay; settings: in vivo, 1 h
Plasma [40] = experiment: Stability of the compound in healthy human spiked plasma assessed as Colistin methanesulfonate A at 80 mg, iv administered for 60 mins measured after 5 hrs at 4 degC by LC-MS/MS assay; settings: in vivo
Plasma [41] = experiment: Stability of the compound in healthy human spiked plasma assessed as Colistin methanesulfonate B at 80 mg, iv administered for 60 mins measured post 2 months of incubation at -20 degC by LC-MS/MS assay; settings: in vivo, 1 h
[42] = Stability of the compound in healthy human spiked urine assessed as Colistin methanesulfonate A degradation at 80 mg, iv administered for 60 mins measured after 1 hr in room temperature by LC-MS/MS assay; settings: in vivo
[43] = Stability of the compound in healthy human spiked urine assessed as Colistin methanesulfonate A degradation at 80 mg, iv administered for 60 mins measured after 2 freeze-thaw cycles by LC-MS/MS assay; settings: in vivo, 1 h
[44] = Stability of the compound in healthy human spiked urine assessed as Colistin methanesulfonate A at 80 mg, iv administered for 60 mins measured after 4 hrs in room temperature by LC-MS/MS assay; settings: in vivo
Plasma [45] = experiment: Stability of the compound in healthy human spiked plasma assessed as Colistin methanesulfonate B degradation at 80 mg, iv administered for 60 mins measured after 4 hrs in room temperature by LC-MS/MS assay; settings: in vivo
Plasma [46] = experiment: Stability of the compound in healthy human spiked plasma assessed as Colistin methanesulfonate A at 80 mg, iv administered for 60 mins measured post 2 months of incubation at -20 degC by LC-MS/MS assay; settings: in vivo, 1 h
Plasma [47] = experiment: Stability of the compound in healthy human spiked plasma assessed as Colistin methanesulfonate B degradation at 80 mg, iv administered for 60 mins measured under acidic pretreatment by LC-MS/MS assay; settings: in vivo, 1 h
Plasma [48] = experiment: Stability of the compound in healthy human spiked plasma assessed as Colistin methanesulfonate B at 80 mg, iv administered for 60 mins measured under acidic pretreatment by LC-MS/MS assay; settings: in vivo, 1 h
Plasma [49] = experiment: Stability of the compound in healthy human spiked plasma assessed as Colistin methanesulfonate B degradation at 80 mg, iv administered for 60 mins measured after 5 hrs at 4 degC by LC-MS/MS assay; settings: in vivo
Plasma [50] = experiment: Stability of the compound in healthy human spiked plasma assessed as initial Colistin methanesulfonate B at 80 mg, iv administered for 60 mins measured after 2 freeze-thaw cycles by LC-MS/MS assay; settings: in vivo, 1 h

Stability (Plasma [1]): Stable
Stability (Plasma [2]): 0.519 µg/mL
Stability [3]: 14.4%
Stability (Plasma [4]): Unstable
Stability [5]: 0.143 µg/mL
Stability (Plasma [6]): 13.9%
Stability (Plasma [7]): Stable
Stability [8]: 0.614 µg/mL
Stability (Plasma [9]): Stable
Stability (Plasma [10]): Stable
Stability (Plasma [11]): 2.508 µg/mL
Stability (Plasma [12]): Stable
Stability [13]: 21.4%
Stability (Plasma [14]): 32.5%
Stability (Plasma [15]): 0.029 µg/mL
Stability [16]: 0.835 µg/mL
Stability [17]: 0.18 µg/mL
Stability (Plasma [18]): 1.254 µg/mL
Stability (Plasma [19]): 7.492 µg/mL
Stability (Plasma [20]): 1.626 µg/mL
Stability (Plasma [21]): Stable
Stability [22]: 29.2%
Stability (Plasma [23]): 3.746 µg/mL
Stability (Plasma [24]): 0.175 µg/mL
Stability [25]: 16.8%
Stability (Plasma [26]): 3.3%
Stability (Plasma [27]): Unstable
Stability (Plasma [28]): Unstable
Stability [29]: 11.6%
Stability [30]: 0.211 µg/mL
Stability (Plasma [31]): Stable
Stability (Plasma [32]): 2.3%
Stability (Plasma [33]): Unstable
Stability [34]: 16.4%
Stability (Plasma [35]): Unstable
Stability [36]: 0.268 µg/mL
Stability [37]: 0.746 µg/mL
Stability (Plasma [38]): 0.123 µg/mL
Stability (Plasma [39]): 0.937 µg/mL
Stability (Plasma [40]): Unstable
Stability (Plasma [41]): Unstable
Stability [42]: 22.3%
Stability [43]: 19.9%
Stability [44]: 1.056 µg/mL
Stability (Plasma [45]): 14%
Stability (Plasma [46]): Unstable
Stability (Plasma [47]): 29.1%
Stability (Plasma [48]): 0.485 µg/mL
Stability (Plasma [49]): Stable
Stability (Plasma [50]): 0.313 µg/mL
Sequence: COLISTIMETHATE SODIUM
